Experimental data as given in patent US6984649B1, “Pyridine derivatives” (Bayer Aktiengesellschaft, priority 2000, dated 2006).
pIC50: −log10 of the molar value. Counter-ions that a name gives are not always drawn.

Tested on: A549 human lung epithelium cell line
Test: RANTES production in response to TNF-α from A549 cells
Assay type: cell-based
Conditions: Homo sapiens, A549, A549 cells, 100 ng/ml TNF-α, read-out: Cellular activity grade (A549) (Cellular IC50)
Description: [The Measurement of RANTES Production in Response to TNF-α from A549 Cells]
(1) Preparation of A549 Cells
• The A549 human lung epithelium cell line (ATCC […]) was maintained in Dulbecco's modified Eagle's medium (D-MEM, Nikken Biomedical Institute) supplemented with 10% FCS (Gibco), 100 U/ml penicillin, 100 μg/ml streptomycin, and 2 mM glutamine (culture medium). Forty thousand (4×10^4) cells (80 μl/well) were seeded in each well of 96 well flat-bottom tissue culture plate (Falcon #3072). The plate was allowed to stand for 2 hrs, thus the cells were adhered to the bottom of each well. To the each well was added 10 μl vehicle (1% DMSO), serial dilutions of test compounds in 1% DMSO, or 5 nM Dexamethasone in 1% DMSO as a reference. The mixture (90 μl/well) was incubated for 1 hr at 37° C. After 1 hr, 1 μg/ml TNF-α (10 μl) in culture medium was added to the mixture to obtain 100 μl of reaction mixture. The reaction mixture was cultured for 24 hrs to stimulate the cells with 100 ng/ml TNF-α. Cells with vehicle without TNF-α stimulation were also prepared. (2) Measurement of RANTES Production • Then the concentration of RANTES released from the cells in the supernatants of each well was determined using a quantitative sandwich enzyme immunoassay technique. First, 2 μg/ml mouse anti-huRANTES mAb (R&D Systems, #mAb678) in PBS buffer (pH 7.4, 100 μl) was put in each well of 96-well NUNC fluoro plate (Nalge Nunc, New York USA) (Final 200 ng/well) and the plate was allowed to stand for overnight at 4° C. to be coated by the antibody. Each well of the plate was then washed with 350 μl wash buffer (0.05% Tween-20, 0.85% NaCl, and 25 mM Tris/HCl pH7.4) for three times. Blocking buffer containing 1% BSA (Sigma 99% pure, 100 g), 5% sucrose (Nacalai tesque, 99% pure, 500 g), and 0.02% azide (Nacalai tesque, 100%, 500 g) were added (200 μl) to each well and then the plate was allowed to stand for 4 hours to stabilize the coated antibody. Next, 50 μl supernatants of cell culture prepared in (1) above were put in each well of the 96-well NUNC fluoro plate with coated antibody. Recombinant Human RANTES (Pepro Tech, Inc. #300-06) was used as the standard for the determination of RANTES production (linear range between 1 and 10 ng/ml). Eu-labelled mouse anti-huRANES mAb (60 ng/ml: R&D Systems, #mAb278) in PBS supplemented by 1% BSA and 0.05% Tween 20 was added (50 μl) to each well. The reaction mixtures were incubated at room temperature for 4 hrs. After washing with wash buffer (0.05% Tween-20, 0.85% NaCl, and 25 mM Tris/HCl pH7.4, 350 μl/well) for 5 times with the use of a Sera Washer (Bio-Tech, #MW-96R), the enhancement solution (DELFIA, #1244-405, 100 μl/well) was added to each well. The plate was incubated for 10 minutes at room temperature with moderate shaking. Fluorescent intensity was measured using a DELFIA fluorimeter (Wallac). Excitation was performed at 340 nm and emission was measured at 615 nm. [The Measurement of TNF-α Production in Response to LPS from Peripheral Blood Mononuclear Cells (PBMC)] (1) Preparation of PBMC • Human PBMC were prepared by first obtaining blood from healthy donors and isolating the cells from the blood. The isolation was done by Ficoll gradient-centrifugation method using Ficoll Pacque (Pharmacia #17-1440-02). Within three hours from donation, the isolated PBMC was used. After three times washing with PBS, PBMC were resuspended with RPMI 1640 (Nikken BioMedical Institute) supplemented with 10% FCS (Gibco), 100 U/ml penicillin, 100 μg/ml streptomycin, and 2 mM glutamine (culture medium). The cells (1×10^5 in 150 μL/well) were seeded in each well of 96 well flat-bottom tissue culture plate (Falcon #3072). To the each well was added 20 μl vehicle (1% DMSO), serial dilutions of test compounds in 1% DMSO, or 250 nM Dexamethasone in 1% DMSO as a reference. The mixture (170 μl/well) was incubated for 1 hr at 37° C. After 1 hr, 20 ng/ml LPS (30 μl) in culture medium was added to the mixture to obtain 200 μl of reaction mixture. […]

Structure (SMILES) | pIC50
O=C1Nc2nc(-c3c(O)cccc3OCC3CC3)cc(C3CCCNC3)c2CO1 (centres unmarked) [Example 18-1, 7-[2-(cyclopropylmethoxy)-6-hydroxyphenyl]-5-(3-piperidinyl)-1,4-dihydro-2H-pyrido[2,3-d][1,3]oxazin-2-one hydrochloride] | > 6.00

Biological target: T1, human IKK-β (Homo sapiens, UniProt O14920)
T1 construct: A cDNA fragment encoding human IKK-β open reading frame was generated by PCR; His tag (from pcDNA3.1/His C); made in house; host or cells: Sf21 insect cells (baculovirus); substrate made in E. coli
T1 sequence (O14920 1-756): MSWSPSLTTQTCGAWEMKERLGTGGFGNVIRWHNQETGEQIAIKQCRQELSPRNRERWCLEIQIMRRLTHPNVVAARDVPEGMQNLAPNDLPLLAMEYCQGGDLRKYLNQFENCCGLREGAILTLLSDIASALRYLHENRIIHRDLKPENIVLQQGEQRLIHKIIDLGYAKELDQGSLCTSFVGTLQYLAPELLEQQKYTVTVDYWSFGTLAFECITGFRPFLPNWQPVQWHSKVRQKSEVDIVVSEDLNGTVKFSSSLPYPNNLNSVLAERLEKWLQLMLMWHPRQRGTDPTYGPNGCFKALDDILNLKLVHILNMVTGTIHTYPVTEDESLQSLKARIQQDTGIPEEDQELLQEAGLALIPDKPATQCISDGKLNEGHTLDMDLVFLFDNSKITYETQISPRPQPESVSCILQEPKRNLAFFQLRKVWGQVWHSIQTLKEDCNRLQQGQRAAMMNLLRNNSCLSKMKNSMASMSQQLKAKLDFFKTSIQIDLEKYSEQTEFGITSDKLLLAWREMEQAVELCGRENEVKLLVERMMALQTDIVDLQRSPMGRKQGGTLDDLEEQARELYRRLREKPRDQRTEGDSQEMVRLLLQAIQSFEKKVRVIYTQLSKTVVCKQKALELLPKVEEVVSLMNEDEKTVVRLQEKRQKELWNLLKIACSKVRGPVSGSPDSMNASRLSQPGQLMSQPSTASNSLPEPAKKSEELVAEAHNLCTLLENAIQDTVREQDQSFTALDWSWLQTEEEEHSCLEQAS
Test: IKK-β kinase inhibitory assay
Assay type: biochemical
Conditions: compounds as yielded by solid phase synthesis, purity about 40 to 90%, read-out: In vitro activity grade (In vitro IC50)
Source text: [IKK-β Kinase Inhibitory Assay]
(1) Preparation of IKK-β Kinase Protein.
• A cDNA fragment encoding human IKK-β open reading frame was generated by PCR with the use of a pair of primers designed from the published sequence (Woronicz J D et al. (1997) Science 278, 866-869). A template was obtained from Quickclone cDNA (Clontech) using Elongase™ Amplification kit (Life Technologies). The DNA fragments generated by PCR were gel-purified and subcloned into pBluescript. The cDNA fragment cloned in pBluescript was inserted into pcDNA3.1/His C KpnI/NotI, and transferred into pVL1393 SmaI/XbaI (Pharmingen) to construct a baculovirus transfer vector. Then the vector, together with the linearized baculovirus (BaculoGold™, Pharmingen) was used to transfect Sf21 cells (Invitrogen, San Diego, Calif.). Generated recombinant baculovirus was cloned and amplified in Sf21 cells, grown in TNM-FH insect cell medium (Life Technologies, Inc.) supplemented with 10% FCS, […] Gentamycin, 0.1% Pluronic F-68 (Life Technologies, Inc.) as suspension culture (200 ml in 1 L Erlenmeyer flask; 27° C.; 130 rpm). Sf21 cells were infected with this amplified virus with a multiplicity of infection of 5 following standard protocols (Crossen R, Gruenwald S (1997) Baculovirus Expression Vector System Instruction Manual, Pharmingen Corporation) and harvested 48 hrs later. The cells were lysed to obtain the produced chimeric protein of IKK-β kinase fused by histidine (His-tagged IKK-beta). (2) The Preparation of Purified GST-IκBα Fusion Proteins • An expression vector containing the nucleotide sequence encoding fusion protein of GST with amino acid residues 1 to 54 of IκBα under the control of an IPTG-inducible promoter was constructed. The expression vector was introduced in E. coli and the transformant was cultured and lysed to obtain a GST-IκBα fusion protein. Then the resulting GST-IκBα fusion protein was purified and biotinated for kinase assay. (3) The Measurement of IKK-β Kinase Activity • The 96-well format kinase assay of IKK-β were performed to test the inhibitory activity of the compounds of the present invention. First, 5 μl of a test compound was put in the presence of 2.5% dimethyl sulfoxide (DMSO) in each well in a U-bottomed 96-well plate (Falcon). For control wells of background (BG) and total phosphorylation (TP), 5 μl of 2.5% DMSO was put. Recombinant IKK-β (final 0.6 μg/ml) and bio-GST-IκBα (1-54) (final 0.2 μM) were diluted in 25 μl of 2×kinase buffer β (40 mM Tris-HCl, pH 7.6, 40 mM MgCl2, 40 mM β-glycerophosphate, 40 mM p-nitrophenylphosphate, 2 mM EDTA, 40 mM creatine phosphate, 2 mM DTT, 2 mM Na3VO4, 0.2 mg/ml BSA and 0.8 mM phenylmethylsulfonyl fluoride) and transferred to the 96-well plate. Bio-GST-IκBα (1-54) in 25 μl of 2×kinase buffer β without IKK-β was transferred to BG wells. Then 20 μl of 12.5 μM ATP, 62.5 μCi/ml [γ-^33P] ATP (Amersham Pharmacia Biotech) was added and the resulting mixture was incubated for 2 hrs at room temperature. The kinase reactions were terminated by the addition of 150 μl of termination buffer (100 mM EDTA, 1 mg/ml BSA, 0.2 mg NaN3). One hundred and fifty μl of the sample were transferred to a streptavidin-coated, white MTP (Steffens Biotechniche Analysen GmbH #08114E14.FWD) to capture the biotinylated substrates. After 1 hr of incubation, non-bound radioactivity was eliminated by washing the wells five times with 300 μl of washing buffer including 0.9% NaCl and 0.1% (w/v) Tween-20 with the use of a MW-96 plate washer (BioTec). The bound radioactivity was determined after the addition of 170 μl MicroScint-PS scintillation cocktail (Packard) using a TopCount scintillation counter. [Syk Tyrosine Kinase Inhibitory Assay for Selectivity] (1) Preparation of Syk Protein • A cDNA fragment encoding human Syk openreading frame was cloned from total RNA of human Burkitt's lymphoma B cell lines, Raji (American Type Culture Collection), with the use of RT-PCR method.

Structure (SMILES) | pIC50
N#Cc1c(C2CNc3ccccc3C2)cc(-c2ccccc2O)nc1N (centres unmarked) [Example 1-16] | < 5.00
N#Cc1c([C@@H]2Cc3ccccc3CN2)cc(-c2ccccc2O)nc1N [Example 1-27] | 5.00 to 5.70
CCCCOc1cccc(O)c1-c1cc(C2CCNCC2)c(C#N)c(N)n1 [Example 2-72] | > 6.30
N#Cc1c(C2CCCNC2)cc(-c2ccccc2O)nc1N1CCNCC1 (centres unmarked) [Example 4-5, 6-(2-hydroxyphenyl)-2-(1-piperazinyl)-4-(3-piperidinyl)nicotinonitrile dihydrochloride] | < 5.00
Cn1c(=O)[nH]c2nc(-c3c(O)cccc3OCC3CC3)cc(C3CCCNC3)c2c1=O (centres unmarked) [Example 10-2, 7-(2-Cyclopropylmethoxy-6-hydroxy-phenyl)-3-methyl-5-piperidin-3-yl-1H-pyrido[2,3-d]pyrimidine-2,4-dione] | > 6.30
N#Cc1c(N2CCCCC2)cc(-c2ccccc2O)nc1N [Example 34-05] | < 5.00
N#Cc1c(NCCN)cc(-c2c(O)cccc2OCC2CC2)nc1N [Example 34-14] | > 6.30
